One assay addresses Human ALK (Homo sapiens (Human), UniProt Q9UM73). Put plainly: ALK enzyme inhibition assay (Reaction Biology Corporation). Type of assay: biochemical. The following applies: poly[Glu:Tyr] (4:1) 0.2 mg/ml, ATP 10 μM; read-out: Inhibitory Activities IC50, ALK. The protocol: (§1) The inhibitory activities of compounds of Formula I were assay at Reaction Biology Corporation, One Great Valley Parkway, Malvern, Pa., USA. Human ALK and cMet enzymes were used and the substrate was a peptide substrate, poly[Glu:Tyr] (4:1) at a concentration of 0.2 mg/ml.

Another assay concerns the target Human cMet (Homo sapiens (Human), UniProt P08581). The assay is described as follows: cMet enzyme inhibition assay (Reaction Biology Corporation). In kind it is biochemical. The following applies: poly[Glu:Tyr] (4:1) 0.2 mg/ml, ATP 10 μM; read-out: Inhibitory Activities IC50, cMet. As to the method: as §1

Chain of Human ALK (Q9UM73 19-1620): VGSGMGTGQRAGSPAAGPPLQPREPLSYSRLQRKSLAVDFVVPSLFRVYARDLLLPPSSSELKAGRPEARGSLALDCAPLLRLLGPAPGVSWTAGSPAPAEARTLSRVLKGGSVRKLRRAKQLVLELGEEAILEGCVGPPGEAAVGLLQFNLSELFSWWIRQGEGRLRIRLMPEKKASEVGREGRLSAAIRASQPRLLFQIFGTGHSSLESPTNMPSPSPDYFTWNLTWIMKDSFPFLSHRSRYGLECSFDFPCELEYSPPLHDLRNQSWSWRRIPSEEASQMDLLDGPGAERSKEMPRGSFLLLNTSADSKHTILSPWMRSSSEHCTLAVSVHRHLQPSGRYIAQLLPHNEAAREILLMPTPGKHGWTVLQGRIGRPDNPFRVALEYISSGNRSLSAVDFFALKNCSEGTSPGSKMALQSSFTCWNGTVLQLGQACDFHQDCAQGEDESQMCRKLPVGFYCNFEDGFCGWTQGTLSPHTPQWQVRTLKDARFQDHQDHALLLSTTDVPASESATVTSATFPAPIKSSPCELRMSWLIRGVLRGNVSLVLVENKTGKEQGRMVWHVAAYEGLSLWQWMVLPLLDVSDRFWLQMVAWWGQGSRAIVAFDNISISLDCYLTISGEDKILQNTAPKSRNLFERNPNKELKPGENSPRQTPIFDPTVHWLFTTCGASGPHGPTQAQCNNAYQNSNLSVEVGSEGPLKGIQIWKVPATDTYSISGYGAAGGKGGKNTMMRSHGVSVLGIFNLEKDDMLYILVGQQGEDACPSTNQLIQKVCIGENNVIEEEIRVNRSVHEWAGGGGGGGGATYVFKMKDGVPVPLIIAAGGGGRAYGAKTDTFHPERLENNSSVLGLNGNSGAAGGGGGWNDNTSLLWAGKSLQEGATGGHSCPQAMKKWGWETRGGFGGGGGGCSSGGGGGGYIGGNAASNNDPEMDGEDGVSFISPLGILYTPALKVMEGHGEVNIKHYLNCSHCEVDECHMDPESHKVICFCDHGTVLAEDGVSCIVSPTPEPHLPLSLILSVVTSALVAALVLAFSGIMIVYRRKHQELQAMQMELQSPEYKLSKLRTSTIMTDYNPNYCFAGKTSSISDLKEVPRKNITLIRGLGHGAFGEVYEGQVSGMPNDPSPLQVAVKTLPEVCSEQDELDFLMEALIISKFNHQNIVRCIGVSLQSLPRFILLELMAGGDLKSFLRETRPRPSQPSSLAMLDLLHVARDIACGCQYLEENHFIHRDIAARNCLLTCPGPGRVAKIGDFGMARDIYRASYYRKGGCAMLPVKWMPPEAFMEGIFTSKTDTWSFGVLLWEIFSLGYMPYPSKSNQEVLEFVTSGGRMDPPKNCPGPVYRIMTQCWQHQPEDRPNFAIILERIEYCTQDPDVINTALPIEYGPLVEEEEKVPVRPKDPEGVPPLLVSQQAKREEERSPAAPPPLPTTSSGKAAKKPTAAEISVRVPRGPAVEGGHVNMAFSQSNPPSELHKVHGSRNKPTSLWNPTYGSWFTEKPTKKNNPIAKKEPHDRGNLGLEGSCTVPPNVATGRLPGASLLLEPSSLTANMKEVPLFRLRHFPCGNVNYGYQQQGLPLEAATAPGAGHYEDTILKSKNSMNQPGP
Chain of Human cMet (P08581 25-1390): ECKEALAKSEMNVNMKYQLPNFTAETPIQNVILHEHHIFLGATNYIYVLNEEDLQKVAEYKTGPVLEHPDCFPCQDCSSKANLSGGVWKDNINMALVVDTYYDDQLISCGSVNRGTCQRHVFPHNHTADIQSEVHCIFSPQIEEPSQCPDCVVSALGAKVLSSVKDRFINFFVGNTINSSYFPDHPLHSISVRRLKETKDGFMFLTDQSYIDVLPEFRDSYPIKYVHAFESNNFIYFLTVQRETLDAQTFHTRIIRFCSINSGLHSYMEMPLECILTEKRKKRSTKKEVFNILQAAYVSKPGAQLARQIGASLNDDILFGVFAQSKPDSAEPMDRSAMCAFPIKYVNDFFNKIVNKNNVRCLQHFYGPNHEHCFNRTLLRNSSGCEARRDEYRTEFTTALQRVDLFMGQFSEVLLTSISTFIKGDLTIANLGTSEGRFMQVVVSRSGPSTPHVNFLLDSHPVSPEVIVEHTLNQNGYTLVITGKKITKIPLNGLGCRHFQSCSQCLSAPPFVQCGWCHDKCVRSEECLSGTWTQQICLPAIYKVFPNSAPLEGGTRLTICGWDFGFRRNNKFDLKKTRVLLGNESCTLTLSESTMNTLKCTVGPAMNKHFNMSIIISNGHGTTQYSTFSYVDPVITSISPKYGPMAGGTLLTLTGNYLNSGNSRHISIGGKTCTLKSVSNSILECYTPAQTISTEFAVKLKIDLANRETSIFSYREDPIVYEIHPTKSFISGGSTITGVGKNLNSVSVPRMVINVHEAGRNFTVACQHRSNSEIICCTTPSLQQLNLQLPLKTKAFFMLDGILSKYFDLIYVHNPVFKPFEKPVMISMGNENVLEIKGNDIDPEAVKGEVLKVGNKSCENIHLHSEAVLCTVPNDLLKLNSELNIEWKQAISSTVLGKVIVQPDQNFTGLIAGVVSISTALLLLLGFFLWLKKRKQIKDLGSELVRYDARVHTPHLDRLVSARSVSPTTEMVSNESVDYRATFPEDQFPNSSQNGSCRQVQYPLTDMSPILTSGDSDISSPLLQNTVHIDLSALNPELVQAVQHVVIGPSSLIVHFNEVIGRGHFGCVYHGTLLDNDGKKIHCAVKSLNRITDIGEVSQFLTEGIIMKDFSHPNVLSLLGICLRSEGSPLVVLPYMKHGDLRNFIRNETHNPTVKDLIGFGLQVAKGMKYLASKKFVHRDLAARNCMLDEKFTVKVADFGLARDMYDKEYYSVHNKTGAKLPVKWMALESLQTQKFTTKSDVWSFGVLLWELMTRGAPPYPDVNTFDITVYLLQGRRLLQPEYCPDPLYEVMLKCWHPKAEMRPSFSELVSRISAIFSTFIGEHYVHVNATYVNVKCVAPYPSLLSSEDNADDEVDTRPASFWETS

For `C[C@@H](Oc1cc(-c2cnn(C3CC4(CNC4)C3)c2)cnc1N)c1c(Cl)ccc(F)c1Cl` [Example 2, (R)-5-(1-(2-azaspiro[3.3]heptan-6-yl)-1H-pyrazol-4-yl)-3-(1-(2,6-dichloro-3-fluorophenyl)ethoxy)pyridin-2-amine], the IC50 on Human ALK was found to be 2.21 nM. In the case of `C[C@@H](Oc1cc(-c2cnn(C3CC4(CCNCC4)C3)c2)cnc1N)c1c(Cl)ccc(F)c1Cl` [Example 3, (R)-5-(1-(7-azaspiro[3.5]nonan-2-yl)-1H-pyrazol-4-yl)-3-((R)-1-(2,6-dichloro-3-fluorophenyl)ethoxy)pyridin-2-amine], the IC50 at Human cMet worked out at 8.9 nM. Regarding `C[C@@H](Oc1cc(-c2cnn(C3CCC4(CC3)CNC4)c2)cnc1N)c1c(Cl)ccc(F)c1Cl` [Example 4, (R)-5-(1-(2-azaspiro[3.5]nonan-7-yl)-1H-pyrazol-4-yl)-3-((R)-1-(2,6-dichloro-3-fluorophenyl)ethoxy)pyridin-2-amine], the IC50 came to 4.31 nM at Human ALK and 4.8 nM at Human cMet. The matching figures for `C[C@@H](Oc1cc(-c2cnn(C3CC4(CCCNC4)C3)c2)cnc1N)c1c(Cl)ccc(F)c1Cl` (stereo partly drawn) [Example 5]: 1.92 nM and 2.09 nM.

The values above are taken from patent publication US9226923B2, “Spirocyclic molecules as protein kinase inhibitors” (Nanjing Allgen Pharma Co. Ltd., priority 2011, dated 2016).
